Data reported in US20130039852A1, “METHODS OF TARGETING CELLS FOR DIAGNOSIS AND THERAPY” (NORTHEASTERN UNIVERSITY, priority 2008, published 2013).
In brackets after ≈: the same amount, converted by molar mass.

Legend:
anti-Bombesin antibody = assay: ELISA for bispecificity using anti-Bombesin capture antibody and DTPA-HRP; format: binding; details: 1 μg/ml, captured by anti-Bombesin antibody
Protocol: Intact 6C31H3 anti-DTPA antibody was modified with 100× molar excess iminothiolane. Bombesin was modified with 24× molar excess N-hydroxy-succinimide ester of bromoacetic acid (as described in Varvarigou et al., Can. Biother. Radiopharm. 19:219-229 (2004); and Bernatowicz et al., Anal. Biochem. 155:95-102 (1986)). […] The antibody activity and Bombesin concentrations were assessed by ELISA using either DTPA-BSA or anti-Bombesin antibody and compared to standard curves. Specifically, the Bombesin concentration of serial dilutions of Bom-BiSpCx starting at 1 μg/ml was determined by ELISA using Bombesin (1 μg/ml) and 6C31H3 antibody (1 μg/ml) as controls. Bombesin of the Bom-BiSpCx (1 μg/ml) was captured by an anti-Bombesin antibody, resulting in a positive reaction with DTPA-HRP (which is specific for the […] antibody of the Bom-BiSpCx).

[1] = system: BT-20 human mammary tumor cells; assay: In vitro assay for tumorotoxicity in BT-20 human mammary tumor cells; format: cell-based; details: BT-20 cells, 10 μg/ml, 3 hrs; compared with Dox-DPG and Dox-DPG-BiSpAb
Protocol: BT-20 human mammary tumor cells were grown in 10% Fetal Clone DEME. When the cells reached about 80% confluence, the cells were harvested by trypsin digestion and replated in […] culture plates at 400,000 cells per well. After 24 hrs, the culture media was removed and in one set of wells was replaced with media containing 10 μg/ml of 2C5-6C31H3 BiSpAb (prepared as described in Example 1). In two other sets, the media was replaced with media lacking 2C5-6C31H3 BiSpAb. Each set was prepared in triplicate. After 24 hrs of incubation, the medium was removed and washed 3× with medium lacking antibody. Medium containing 10 μg/ml of free Dox was then added to a medium-only set of wells, and media containing 10 μg/ml of Dox-DPG was added to one set with and one set without 2C5-6C31H3 BiSpAb. The cultures were incubated for either 3 hrs, 12 hrs, or 24 hrs, at which times the cells in the media were collected and viability was determined by counting cells with Tryptan Blue exclusion criteria in a hemocytometer.

PC-3 cancer cells = assay: In vitro therapeutic efficacy in PC-3 cell cultures; format: cell-based, human; details: 10 μg Bom-BiSpCx 24 hr then 10 μg/ml Dox-DPG, or 10 μg/ml free Dox; Trypan blue
Protocol: PC-3 cancer cells were grown in 10% fetal clone-DMEM until they reached about 80% confluence. The cells were then harvested by trypsin digestion and re-plated in 6 well culture plates at 40,000 cells per well. After attaining 70% confluency, the medium was replaced with or without 10 μg of Bom-BiSpCx (prepared as described in Example 3) in triplicates to quadruplicates. After 24 hr of incubation at 37° C. in 5% CO2, the media was changed to media containing 10 μg/ml of free Dox or Dox-DPG (prepared as described in Example 2). The cells were further incubated at 37° C. for 0-3 hr, 3-12 hr, or 12-24 hr, at which time the cells in each well were collected and the number of live and dead cells determined by Trypan blue exclusion test in a Hemocytometer. Negative control cells were treated with monospecific 2C5 antibody, […] antibody, Bombesin, or culture media alone. Positive control cells were treated with 10 μg/ml of free Dox. Each assay was repeated at least 3 times in triplicate or quadruplicate.

[2] = system: H9C2 embryonic rat cardiocytes; assay: IC50 in H9C2 embryonic cardiocytes, Trypan Blue exclusion; format: cell-based; details: 24 hr
Protocol: H9C2 embryonic rat cardiocytes cultured in 10% Fetal Clone DMEM (F-DMEM) at 37° C. in 25 ml sterile culture flasks until 90% confluent in triplicate were dissociated by Trypsin digestion. The cells were washed in F-DMEM. Aliquots of 40,000 H9C2 cells in 1 ml F-DMEM were delivered to each well of a 6 well culture plate. After incubation for 24 hr, the culture medium was removed and fresh medium containing 2.5 μg/ml, 5 μg/ml, 10 μg/ml, 15 μg/ml, and 30 μg/ml of Dox-DPG or free Dox were added and incubated at 37° C. for 24 hr. Cell death was assessed by Trypan Blue exclusion test.

SMILES | Reaction with DTPA-HRP, O.D. 490 nm (anti-Bombesin antibody) | Tumor cell killing, early stage of incubation [1] | Death of PC-3 cancer cells (PC-3 cancer cells) [%] | IC50 (cardiotoxicity) [2] [µg/mL]
O=C(O)CN(CCN(CC(=O)O)CC(=O)O)CCN(CC(=O)O)CC(=O)O [DTPA, diethylene triaminepentaacetic acid] | 0.0007±0.0025 | – | – | –
COc1cccc2c1C(=O)c1c(O)c3c(c(O)c1C2=O)C[C@@](O)(C(=O)CO)C[C@@H]3O[C@H]1C[C@H](N)[C@H](O)[C@H](C)O1 [doxorubicin] | – | more effective in killing tumor cells | 68.6 | 1.02 (≈ 1.88 µM)
